The EC50 is the concentration needed to bring the measured effect to its halfway point.

The target of one series is T1, PPARδ (Homo sapiens, UniProt Q03181).
T1 sequence (Q03181 1-441): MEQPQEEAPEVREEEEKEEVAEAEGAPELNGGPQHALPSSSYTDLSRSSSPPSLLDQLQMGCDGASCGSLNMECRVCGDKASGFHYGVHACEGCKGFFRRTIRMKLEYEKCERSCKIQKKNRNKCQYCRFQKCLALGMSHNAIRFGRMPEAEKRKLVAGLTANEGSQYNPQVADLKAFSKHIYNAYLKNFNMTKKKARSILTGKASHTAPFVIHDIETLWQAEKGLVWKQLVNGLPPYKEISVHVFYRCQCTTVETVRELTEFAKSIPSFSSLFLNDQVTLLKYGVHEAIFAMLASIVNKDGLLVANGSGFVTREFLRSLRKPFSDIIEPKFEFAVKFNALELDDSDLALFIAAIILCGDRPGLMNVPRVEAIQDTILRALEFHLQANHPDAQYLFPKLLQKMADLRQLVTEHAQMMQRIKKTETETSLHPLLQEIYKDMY
The settings on record: PPAR transcriptional activity; Fruchart 2013 Table 1; cited from earlier work.

The next series concerns men with dyslipidemia. The settings on record: Helsinki Heart Study and VA-HIT Study; cited from earlier work.
For series [1], the system named is patients on statins with residual cardiovascular risk. The following applies: two clinical trials; cited from earlier work.
The target of a further series is T2, PPARγ (Homo sapiens, UniProt P37231).
T2 sequence (P37231 1-505): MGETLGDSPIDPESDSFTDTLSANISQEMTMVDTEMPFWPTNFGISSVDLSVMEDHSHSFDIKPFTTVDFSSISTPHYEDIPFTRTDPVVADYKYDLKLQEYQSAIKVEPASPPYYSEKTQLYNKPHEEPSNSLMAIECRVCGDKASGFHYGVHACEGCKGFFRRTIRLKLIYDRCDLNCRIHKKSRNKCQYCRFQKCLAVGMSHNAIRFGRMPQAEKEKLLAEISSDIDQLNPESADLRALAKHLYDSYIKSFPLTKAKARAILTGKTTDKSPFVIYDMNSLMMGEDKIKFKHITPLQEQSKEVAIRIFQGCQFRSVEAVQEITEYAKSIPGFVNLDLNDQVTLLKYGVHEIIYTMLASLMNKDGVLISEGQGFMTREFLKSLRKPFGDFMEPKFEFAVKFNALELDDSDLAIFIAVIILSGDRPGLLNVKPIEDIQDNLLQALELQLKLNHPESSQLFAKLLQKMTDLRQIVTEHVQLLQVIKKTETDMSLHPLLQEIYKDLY
The following applies: PPAR transcriptional activity; Fruchart 2013 Table 1; cited from earlier work.

Series [2] deals with patients with type 2 diabetes mellitus with residual dyslipidemia on statin. In words: Example 2: post-hoc analysis of type 2 diabetes patients of the Example 1 study. The settings on record: for increase in HDL-C / BQ LDL-C increase: significant. The class given is in vivo, human. The text has this: Overall, 161 type 2 diabetes mellitus patients were randomized and 154 patients completed treatment. […] Tables 1-4 also report the results of the analyses, and compare the results to the results obtained for the general residual dyslipidemia population studied in Example 1.

Series [3] relates to patients with fasting high TG and non-HDL-C treated with pitavastatin. In words: Example 3: double-blind parallel-group study, pemafibrate add-on to pitavastatin, 12 weeks. In kind it is in vivo, human. The settings on record: for Fasting non-HDL-C reduction: with pitavastatin, placebo −5.9%; for Fasting TG reduction (percentage change from baseline): with pitavastatin 2 mg/day, P<0.001 vs placebo (−6.9%). The text has this:
The primary endpoint was the percentage change in TG from baseline and incidence of adverse drug reactions (ADRs) and adverse events (AEs).

Series [4] deals with dyslipidemia patients on concurrent statin therapy. In kind it is in vivo, human. The following applies: for LDL-C levels increase vs. placebo: significant. The text has this:
The results of the study are depicted in FIGS. 1A-1D.

SMILES strings stand for the structures. Read-outs that look alike come from different tables or passages of the source.

With `CC(C)OC(=O)C(C)(C)Oc1ccc(C(=O)c2ccc(Cl)cc2)cc1` [Fenofibrate, reference compound], on PPARδ, the “PPARδ EC50” value is listed as “not activated”.

Consider `Cc1ccc(C)c(OCCCC(C)(C)C(=O)O)c1` [gemfibrozil], for which the “primary endpoint for reducing cardiovascular risk” value in the series on men with dyslipidemia is given as “met their primary endpoint”.

On to `O=C(O)c1cccnc1` [niacin], for which the “prevention of cardiovascular events” value in series [1] was “unable to prevent cardiovascular events”.

Regarding `CC[C@@H](Oc1cccc(CN(CCCOc2ccc(OC)cc2)c2nc3ccccc3o2)c1)C(=O)O` [pemafibrate, Pemafibrate], the EC50 was 2300 nM at PPARγ and 1000 nM on PPARδ. Further, the “increase in HDL-C” value was 11.39% in series [2] (0.05 mg BID), 11.94% in series [2] (0.1 mg BID) and 9.48% in series [2] (0.2 mg QD). Also, the figures for the “BQ LDL-C increase” value in series [2] (0.1 mg QD) and in series [2] (0.2 mg BID) were 6.7% and 1.8%, respectively. The TG levels entry in series [2] (across all doses) and in series [4] (all treatment groups after 12 weeks) was “significantly reduced” in each case. Moreover, the “Apo B48 levels” value in series [2] (all doses) is on record as “significantly reduced”. Also, the “Apo CIII levels” value in series [2] (all doses) is listed as “significantly reduced”. Further, the remnant-C levels result in series [2] (all doses) is recorded as “significantly reduced”. Further, the “change in total Apo B” value is reported as “no significant change” in series [2] (any dose) and “no significant change” in series [4] (any dose, 12 weeks). In series [3] (0.4 mg/day, P=0.003), the “fasting plasma glucose compared to placebo” value was “significant reductions”. Further, in series [3] (0.4 mg/day, P=0.019), the “HOMA-IR compared to placebo” value is reported as “significant reductions”. The “very small LDL-C compared to placebo” value in series [3] (HPLC analysis, P<0.05) is “significant reduction”. The “effect on total LDL-C” value in series [3] (add-on to pitavastatin, 12 weeks) was “neutral effect”. In series [3] (all pemafibrate groups, P<0.01), the “Apo CIII compared to placebo” value is listed as “reductions”. In addition, the “HDL-C compared to placebo” value in series [3] (all pemafibrate groups, P<0.01) was “Significant increase”. Further, the “VLDL-C compared to placebo” value in series [3] (all pemafibrate groups, P<0.01) is recorded as “reductions”. Also, in series [3] (all pemafibrate groups, P<0.01), the “remnant lipoprotein cholesterol compared to placebo” value was “reductions”. The “Fasting non-HDL-C reduction” value in series [3] (pemafibrate 0.1 mg, 12 weeks) is given as −11.3%; in series [3] (pemafibrate 0.2 mg, 12 weeks), −14.1%; in series [3] (pemafibrate 0.4 mg, 12 weeks) it was −13.3%. Moreover, the “Fasting TG reduction (percentage change from baseline)” value in series [3] (pemafibrate 0.1 mg/day twice-daily, 12 weeks) is on record as −46.1%; in series [3] (pemafibrate 0.2 mg/day twice-daily, 12 weeks) it was −53.4%; in series [3] (pemafibrate 0.4 mg/day twice-daily, 12 weeks), −52.0%. Also, the “LDL-C levels increase vs. placebo” value worked out at 22.46% in series [4] (0.1 mg BID, 12 weeks); 24.25% in series [4] (0.2 mg BID, 12 weeks); 18.74% in series [4] (0.4 mg QD, 12 weeks). Further, the Non-HDL-C levels entry in series [4] (0.2 mg BID, 12 weeks) was “significantly reduced”; in series [4] (0.2 mg QD, 12 weeks), “significantly reduced”. Further, the “Adverse events, patients” value in series [4] (both, human, in vivo, 12 weeks) stood at 46.4%.

Source of the values: patent US10864198B2, “Methods of preventing cardiovascular events in residual risk dyslipidemic populations” (Kowa Company, Ltd., priority 2016, dated 2020).
